Source: patent US11970498B2, “CDK2 inhibitors” (BLUEPRINT MEDICINES CORPORATION, priority 2021, dated 2024)

Tests used:
[1] = target: CDK2/Cyclin E (Homo sapiens, UniProt P24941); experiment: CDK2/Cyclin E biochemical phosphorylation assay (Caliper mobility shift); settings: apparent IC50; 1.0 mM ATP or ATP Km; 1.25 nM enzyme; 25° C.; read-out: CDK2/cyclin E1 IC50
Experimental: (§1) Inhibitory effects of the compounds of the disclosure were measured in biochemical assays that measure the enzymatic phosphorylation activity of CDK enzyme in complex of Cyclin proteins phosphorylates 7.5 micromolar fluorescently labelled peptide substrate, 5-FAM-QSPKKG-CONH2, (FL-Peptide 18, Perkin Elmer, 760362) in the presence of adenosine-5′-triphosphate (ATP) and varying concentrations of the test compound in 100 mM 2-[4-(2-hydroxyethyl)piperazin-1-yl] ethanesulfonic acid (HEPES), pH 7.5, 10 mM MgCl2, 0.015% Brij-35, 1 mM dithiothreitol (DTT), 1.0% dimethylsulfoxide (DMSO). Assays were performed at 1.0 mM ATP or at ATP Km of the CDK enzymes in complex with Cyclin proteins. Reactions proceeded until between 10% to 20% total peptides were phosphorylated at room temperature (25° C.) and were terminated with 35 mM 2,2′,2″,2′″-(ethane-1,2-diyldinitrilo)tetraacetic acid (EDTA). Product was detected using the Caliper mobility shift detection method where the phosphorylated peptide (product) and substrate were electrophoretically separated and measured. Percent activity was plotted against log concentration of compound and points to generate an apparent IC50. The following CDK enzymes in complex with different cyclin proteins were used in these assays: • CDK1/Cyclin B1, GST-tag (BPS, 40454), 1.5 nM used in the assay • CDK2/Cyclin E (Eurofins, 14-475), 1.25 nM used in the assays
(§2) For inhibitory activity against CDK2/Cyclin E mutant, the following designations are used: ≤10 nM=A; >10-20 nM=B; >20-30 nM=C; >30-100 nM=D and >100=E. For inhibition CDK1/Cyclin B1, GST-tag: ≥500 nM=A; <100-500 nM=B; <100 nM=C.

[2] = target: T1, CDK1/Cyclin B1, GST-tag (Homo sapiens, UniProt P06493); experiment: CDK1/Cyclin B1 biochemical phosphorylation assay (Caliper mobility shift); settings: apparent IC50; 1.0 mM ATP or ATP Km; 1.5 nM enzyme; 25° C.
T1 construct: GST
T1 sequence (P06493 whole entry): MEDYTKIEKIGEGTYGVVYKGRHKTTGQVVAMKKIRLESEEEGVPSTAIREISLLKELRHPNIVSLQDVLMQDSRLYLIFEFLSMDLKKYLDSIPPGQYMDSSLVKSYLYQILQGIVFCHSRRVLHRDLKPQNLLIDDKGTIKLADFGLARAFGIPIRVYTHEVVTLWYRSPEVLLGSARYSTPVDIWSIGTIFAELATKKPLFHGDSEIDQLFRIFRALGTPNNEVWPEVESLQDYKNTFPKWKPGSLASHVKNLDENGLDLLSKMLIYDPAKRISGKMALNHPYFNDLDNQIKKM
T1 sequence (P14635 whole entry partner): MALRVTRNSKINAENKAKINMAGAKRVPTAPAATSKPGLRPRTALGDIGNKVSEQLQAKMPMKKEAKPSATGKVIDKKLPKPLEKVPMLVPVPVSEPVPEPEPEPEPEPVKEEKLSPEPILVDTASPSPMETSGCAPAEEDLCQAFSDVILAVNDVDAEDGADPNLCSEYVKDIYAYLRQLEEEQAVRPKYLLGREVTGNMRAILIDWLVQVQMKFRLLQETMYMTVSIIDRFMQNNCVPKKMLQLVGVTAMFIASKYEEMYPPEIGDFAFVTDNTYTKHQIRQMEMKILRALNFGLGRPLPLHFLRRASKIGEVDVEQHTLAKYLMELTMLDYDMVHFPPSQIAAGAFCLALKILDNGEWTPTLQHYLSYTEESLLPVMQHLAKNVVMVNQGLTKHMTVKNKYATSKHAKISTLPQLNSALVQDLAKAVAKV
Experimental: as §1, §2

| SMILES | IC50 [1] | IC50 [2] |
| --- | --- | --- |
| O[C@@H]1C[C@H]1Cn1ncc2ncc(Nc3cc(OC(F)F)[nH]n3)nc21 (single isomer, unassigned) [Example 180, (1S,2R)-2-((6-((5-(difluoromethoxy)-1H-pyrazol-3-yl)amino)-1H-pyrazolo[3,4-b]pyrazin-1-yl)methyl)cyclopropan-1-ol or (1R,2S)-2-((6-((5-(difluoromethoxy)-1H-pyrazol-3-yl)amino)-1H-pyrazolo[3,4-b]pyrazin-1-yl)methyl)cyclopropan-1-ol] | 20 to 30 nM | ≥ 500 nM |
| FC(F)Oc1cc(Nc2cnc3cnn(Cc4cccnc4)c3n2)n[nH]1 [Example 35, N-(5-(difluoromethoxy)-1H-pyrazol-3-yl)-1-(pyridin-3-ylmethyl)-1H-pyrazolo[3,4-b]pyrazin-6-amine] | ≤ 10 nM | ≥ 500 nM |
| C[C@@H](C1CCOCC1)n1ncc2ncc(Nc3cc(OC(F)F)[nH]n3)nc21 [Example 77, (S)-N-(5-(difluoromethoxy)-1H-pyrazol-3-yl)-1-(1-(tetrahydro-2H-pyran-4-yl)ethyl)-1H-pyrazolo[3,4-b]pyrazin-6-amine] | ≤ 10 nM | 100 to 500 nM |
| FC(F)Oc1cc(Nc2cnc3cnn(C[C@H]4[C@@H]5COC[C@@H]54)c3n2)n[nH]1 [Example 81, 1-(((1R,5S,6s)-3-oxabicyclo[3.1.0]hexan-6-yl)methyl)-N-(5-(difluoromethoxy)-1H-pyrazol-3-yl)-1H-pyrazolo[3,4-b]pyrazin-6-amine] | ≤ 10 nM | ≥ 500 nM |
| COc1cc(Nc2cnc3cnn(C(C)c4cccnn4)c3n2)n[nH]1 (single isomer, unassigned) [Example 33, (R)—N-(5-methoxy-1H-pyrazol-3-yl)-1-(1-(pyridazin-3-yl)ethyl)-1H-pyrazolo[3,4-b]pyrazin-6-amine or (S)—N-(5-methoxy-1H-pyrazol-3-yl)-1-(1-(pyridazin-3-yl)ethyl)-1H-pyrazolo[3,4-b]pyrazin-6-amine] | ≤ 10 nM | 100 to 500 nM |
| [2H]C([2H])(C1CCOCC1)n1ncc2ncc(Nc3cc(OC(F)F)[nH]n3)nc21 [Example 226, N-(5-(difluoromethoxy)-1H-pyrazol-3-yl)-1-((tetrahydro-2H-pyran-4-yl)methyl-d2)-1H-pyrazolo[3,4-b]pyrazin-6-amine] | ≤ 10 nM | 100 to 500 nM |
| CC1(C)C[C@H](Cn2ncc3ncc(Nc4cc(OC(F)F)[nH]n4)nc32)C(=O)N1 (single isomer, unassigned) [Example 185, (S)-3-((6-((5-(difluoromethoxy)-1H-pyrazol-3-yl)amino)-1H-pyrazolo[3,4-b]pyrazin-1-yl)methyl)-5,5-dimethylpyrrolidin-2-one or (R)-3-((6-((5-(difluoromethoxy)-1H-pyrazol-3-yl)amino)-1H-pyrazolo[3,4-b]pyrazin-1-yl)methyl)-5,5-dimethylpyrrolidin-2-one] | 30 to 100 nM | ≥ 500 nM |
| O[C@H]1CC[C@@H](Cn2ncc3ncc(Nc4cc(OC(F)F)[nH]n4)nc32)CC1 (single isomer, unassigned) [Example 172, (1r,4r)-4-((6-((5-(difluoromethoxy)-1H-pyrazol-3-yl)amino)-1H-pyrazolo[3,4-b]pyrazin-1-yl)methyl)cyclohexan-1-ol or (1s,4s)-4-((6-((5-(difluoromethoxy)-1H-pyrazol-3-yl)amino)-1H-pyrazolo[3,4-b]pyrazin-1-yl)methyl)cyclohexan-1-ol] | 10 to 20 nM | ≥ 500 nM |
| FC(F)Oc1cc(Nc2cnc3cnn(Cc4cccnn4)c3n2)n[nH]1 [Example 222, N-(5-(difluoromethoxy)-1H-pyrazol-3-yl)-1-(pyridazin-3-ylmethyl)-1H-pyrazolo[3,4-b]pyrazin-6-amine] | ≤ 10 nM | ≥ 500 nM |
| FC(F)Oc1cc(Nc2cnc3cnn(C[C@H]4CCCCO4)c3n2)n[nH]1 [Example 107, (R)-N-(5-(difluoromethoxy)-1H-pyrazol-3-yl)-1-((tetrahydro-2H-pyran-2-yl)methyl)-1H-pyrazolo[3,4-b]pyrazin-6-amine] | 20 to 30 nM | ≥ 500 nM |
| FC(F)Oc1cc(Nc2cnc3cnn(CC4(C(F)(F)F)CCOCC4)c3n2)n[nH]1 [Example 121, N-(5-(difluoromethoxy)-1H-pyrazol-3-yl)-1-((4-(trifluoromethyl)tetrahydro-2H-pyran-4-yl)methyl)-1H-pyrazolo[3,4-b]pyrazin-6-amine] | 30 to 100 nM | ≥ 500 nM |
| FC(F)Oc1cc(Nc2cnc3cnn(C[C@@H]4[C@@H]5COC[C@@H]54)c3n2)n[nH]1 [Example 111, 1-(((1R,5S,6r)-3-oxabicyclo[3.1.0]hexan-6-yl)methyl)-N-(5-(difluoromethoxy)-1H-pyrazol-3-yl)-1H-pyrazolo[3,4-b]pyrazin-6-amine] | ≤ 10 nM | ≥ 500 nM |
| FC(F)Oc1cc(Nc2cnc3cnn([C@H](C4CCOCC4)C4CC4)c3n2)n[nH]1 (single isomer, unassigned) [Example 157, (S)-1-(cyclopropyl(tetrahydro-2H-pyran-4-yl)methyl)-N-(5-(difluoromethoxy)-1H-pyrazol-3-yl)-1H-pyrazolo[3,4-b]pyrazin-6-amine or (R)-1-(cyclopropyl(tetrahydro-2H-pyran-4-yl)methyl)-N-(5-(difluoromethoxy)-1H-pyrazol-3-yl)-1H-pyrazolo[3,4-b]pyrazin-6-amine] | 30 to 100 nM | ≥ 500 nM |
| COc1cc(Nc2cnc3cnn(CC45CCC(CC4)OC5)c3n2)n[nH]1 [Example 136, 1-((2-oxabicyclo[2.2.2]octan-4-yl)methyl)-N-(5-methoxy-1H-pyrazol-3-yl)-1H-pyrazolo[3,4-b]pyrazin-6-amine] | 10 to 20 nM | ≥ 500 nM |
| CC(C1CCCOC1)n1ncc2ncc(Nc3cc(OC(F)F)[nH]n3)nc21 (single isomer, unassigned) [Example 218] | ≤ 10 nM | < 100 nM |
| OC1(Cn2ncc3ncc(Nc4cc(OC(F)F)[nH]n4)nc32)CCC1 [Example 125, 1-((6-((5-(difluoromethoxy)-1H-pyrazol-3-yl)amino)-1H-pyrazolo[3,4-b]pyrazin-1-yl)methyl)cyclobutan-1-ol] | 20 to 30 nM | ≥ 500 nM |
| C[C@]1(Cn2ncc3ncc(Nc4cc(OC(F)F)[nH]n4)nc32)CCOC1 (single isomer, unassigned) [Example 165, (R)-N-(5-(difluoromethoxy)-1H-pyrazol-3-yl)-1-((3-methyltetrahydrofuran-3-yl)methyl)-1H-pyrazolo[3,4-b]pyrazin-6-amine or (S)-N-(5-(difluoromethoxy)-1H-pyrazol-3-yl)-1-((3-methyltetrahydrofuran-3-yl)methyl)-1H-pyrazolo[3,4-b]pyrazin-6-amine] | 30 to 100 nM | ≥ 500 nM |
| Fc1ccccc1Cn1ncc2ncc(Nc3cc(OC(F)F)[nH]n3)nc21 [Example 37, N-(5-(difluoromethoxy)-1H-pyrazol-3-yl)-1-(2-fluorobenzyl)-1H-pyrazolo[3,4-b]pyrazin-6-amine] | 20 to 30 nM | ≥ 500 nM |
| C[C@@H](c1cccnc1)n1nc(Cl)c2ncc(Nc3cc(OC(F)F)[nH]n3)nc21 [Example 61, (S)-3-chloro-N-(5-(difluoromethoxy)-1H-pyrazol-3-yl)-1-(1-(pyridin-3-yl)ethyl)-1H-pyrazolo[3,4-b]pyrazin-6-amine] | ≤ 10 nM | ≥ 500 nM |
| COc1cc(Nc2cnc3cnn([C@@H](C)c4cc(F)ccn4)c3n2)n[nH]1 (single isomer, unassigned) [Example 186, (S)-1-(1-(4-fluoropyridin-2-yl)ethyl)-N-(5-methoxy-1H-pyrazol-3-yl)-1H-pyrazolo[3,4-b]pyrazin-6-amine or (R)-1-(1-(4-fluoropyridin-2-yl)ethyl)-N-(5-methoxy-1H-pyrazol-3-yl)-1H-pyrazolo[3,4-b]pyrazin-6-amine] | 10 to 20 nM | ≥ 500 nM |
| COc1cc(Nc2cnc3cnn([C@@H](C)C4CCOCC4)c3n2)n[nH]1 [Example 22, (S)—N-(5-methoxy-1H-pyrazol-3-yl)-1-(1-(tetrahydro-2H-pyran-4-yl)ethyl)-1H-pyrazolo[3,4-b]pyrazin-6-amine] | ≤ 10 nM | 100 to 500 nM |
| COc1cc(Nc2cnc3cnn([C@@H](C)c4cccnc4)c3n2)n[nH]1 [Example 67, (S)-N-(5-methoxy-1H-pyrazol-3-yl)-1-(1-(pyridin-3-yl)ethyl)-1H-pyrazolo[3,4-b]pyrazin-6-amine] | ≤ 10 nM | ≥ 500 nM |
| Fc1ccc(Cn2ncc3ncc(Nc4cc(OC(F)F)[nH]n4)nc32)cn1 [Example 41, N-(5-(difluoromethoxy)-1H-pyrazol-3-yl)-1-((6-fluoropyridin-3-yl)methyl)-1H-pyrazolo[3,4-b]pyrazin-6-amine] | ≤ 10 nM | ≥ 500 nM |
